The record followed here is PubChem BioAssay AID250 (DTP/NCI, 2004).

The test deals with BDF1 mice, L1210 leukemia sc, survival T/C. Kind of test: NCI In Vivo Anticancer Drug Screen. Data for tumor model L1210 Leukemia (subcutaneous) in B6D2F1 (BDF1) mice. Conditions: higher = longer survival. In outline: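 Tumors were transplanted into mice, the animals were treated with compound, survival or tumor size was then measured, and treated values were divided by vehicle-control values.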

Setting [1] is: endpoint: median survival time, dose: 180.0 mg/kg/injection, schedule: Q01DX Z (sc), vehicle: saline.

Values joined by “and” are separate entries in the source; they are usually repeats but may differ in a detail not shown here. Equal values may be shown once. Toxic doses and inconclusive results are not listed.

For the molecule `O=c1[nH]cc(F)c(=O)[nH]1`, the T/C is 112 % of control (endpoint: mean survival time, dose: 65.0 mg/kg/injection, schedule: Q07DX009 (sc), vehicle: saline); 99 % of control (endpoint: mean survival time, dose: 108.0 mg/kg/injection, schedule: Q07DX009 (sc), vehicle: saline); 113 % of control (endpoint: mean survival time, dose: 180.0 mg/kg/injection, schedule: Q07DX009 (sc), vehicle: saline); 162 % of control (endpoint: mean survival time, dose: 300.0 mg/kg/injection, schedule: Q07DX009 (sc), vehicle: saline); 93 % of control and 100 % of control (endpoint: median survival time, dose: 2.5 mg/kg/injection, schedule: Q01DX009 (ip), vehicle: saline); 104 % of control (endpoint: median survival time, dose: 3.0 mg/kg/injection, schedule: Q01DX Z (sc), vehicle: saline). Also, the T/C was 100 % of control (endpoint: median survival time, dose: 3.02 mg/kg/injection, schedule: Q01DX Z (sc), vehicle: saline); 105 % of control (endpoint: median survival time, dose: 4.0 mg/kg/injection, schedule: Q01DX Z (sc), vehicle: saline); 94 % of control and 100 % of control and 102 % of control (endpoint: median survival time, dose: 5.0 mg/kg/injection, schedule: Q01DX009 (ip), vehicle: saline); 103 % of control (endpoint: median survival time, dose: 5.0 mg/kg/injection, schedule: Q01DX009 (sc), vehicle: saline); 108 % of control (endpoint: median survival time, dose: 5.0 mg/kg/injection, schedule: Q01DX Z (sc), vehicle: saline); 100 % of control (endpoint: median survival time, dose: 5.04 mg/kg/injection, schedule: Q01DX Z (sc), vehicle: saline). In addition, the T/C is 110 % of control (endpoint: median survival time, dose: 8.4 mg/kg/injection, schedule: Q01DX009 (ip), vehicle: saline); 114 % of control (endpoint: median survival time, dose: 8.4 mg/kg/injection, schedule: Q01DX009 (sc), vehicle: saline); 111 % of control (endpoint: median survival time, dose: 8.4 mg/kg/injection, schedule: Q01DX013 (sc), vehicle: saline); 105 % of control and 108 % of control and 116 % of control (endpoint: median survival time, dose: 8.4 mg/kg/injection, schedule: Q01DX Z (sc), vehicle: saline); 103 % of control and 109 % of control (endpoint: median survival time, dose: 10.0 mg/kg/injection, schedule: Q01DX009 (ip), vehicle: saline); 121 % of control (endpoint: median survival time, dose: 14.0 mg/kg/injection, schedule: Q01DX009 (ip), vehicle: saline). Further, the T/C was 150 % of control (endpoint: median survival time, dose: 14.0 mg/kg/injection, schedule: Q01DX013 (sc), vehicle: saline); 100 % of control (endpoint: median survival time, dose: 14.0 mg/kg/injection, schedule: Q04DX003 (ip), vehicle: saline); 103 % of control (endpoint: median survival time, dose: 14.0 mg/kg/injection, schedule: Q04DX003 (sc), vehicle: saline); 122 % of control (endpoint: median survival time, dose: 16.0 mg/kg/injection, schedule: Q01DX Z (sc), vehicle: saline); 154 % of control (endpoint: median survival time, dose: 23.0 mg/kg/injection, schedule: Q01DX009 (sc), vehicle: saline); 161 % of control and 163 % of control (endpoint: median survival time, dose: 23.0 mg/kg/injection, schedule: Q01DX013 (sc), vehicle: saline). Also, the T/C reads like this: (endpoint: median survival time, dose: 23.0 mg/kg/injection, schedule: Q04DX003 (ip), vehicle: saline) 107 % of control; (endpoint: median survival time, dose: 23.0 mg/kg/injection, schedule: Q04DX003 (sc), vehicle: saline) 102 % of control; (endpoint: median survival time, dose: 23.3 mg/kg/injection, schedule: Q01DX Z (sc), vehicle: saline) 108 % of control; (endpoint: median survival time, dose: 38.9 mg/kg/injection, schedule: Q01DX Z (sc), vehicle: saline) 100 % of control; (endpoint: median survival time, dose: 39.0 mg/kg/injection, schedule: Q01DX009 (ip), vehicle: saline) 109 % of control; (endpoint: median survival time, dose: 39.0 mg/kg/injection, schedule: Q01DX009 (sc), vehicle: saline) 121 % of control. Also, the T/C is 166 % of control and 167 % of control (endpoint: median survival time, dose: 39.0 mg/kg/injection, schedule: Q01DX013 (sc), vehicle: saline); 163 % of control and 175 % of control (endpoint: median survival time, dose: 39.0 mg/kg/injection, schedule: Q01DX Z (sc), vehicle: saline); 161 % of control (endpoint: median survival time, dose: 64.0 mg/kg/injection, schedule: Q01DX Z (sc), vehicle: saline); 101 % of control (endpoint: median survival time, dose: 65.0 mg/kg/injection, schedule: Q01DX009 (ip), vehicle: saline); 107 % of control (endpoint: median survival time, dose: 65.0 mg/kg/injection, schedule: Q01DX009 (sc), vehicle: saline); 151 % of control (endpoint: median survival time, dose: 65.0 mg/kg/injection, schedule: Q04DX003 (sc), vehicle: saline). Further, the T/C by setting is: (endpoint: median survival time, dose: 65.0 mg/kg/injection, schedule: Q07DX009 (sc), vehicle: saline) 114 % of control; (endpoint: median survival time, dose: 65.0 mg/kg/injection, schedule: Q07DX Z (sc), vehicle: saline) 115 % of control; (endpoint: median survival time, dose: 108.0 mg/kg/injection, schedule: Q01DX Z (sc), vehicle: saline) 91 % of control; (endpoint: median survival time, dose: 108.0 mg/kg/injection, schedule: Q04DX003 (ip), vehicle: saline) 173 % of control; (endpoint: median survival time, dose: 108.0 mg/kg/injection, schedule: Q04DX003 (sc), vehicle: saline) 187 % of control; (endpoint: median survival time, dose: 108.0 mg/kg/injection, schedule: Q07DX009 (sc), vehicle: saline) 102 % of control. Further, the T/C by setting is: (endpoint: median survival time, dose: 108.0 mg/kg/injection, schedule: Q07DX Z (sc), vehicle: saline) 105 % of control; (endpoint: median survival time, dose: 128.0 mg/kg/injection, schedule: Q01DX Z (sc), vehicle: saline) 155 % of control; under setting [1], 120 % of control; (endpoint: median survival time, dose: 180.0 mg/kg/injection, schedule: Q04DX003 (ip), vehicle: saline) 121 % of control; (endpoint: median survival time, dose: 180.0 mg/kg/injection, schedule: Q04DX003 (sc), vehicle: saline) 184 % of control; (endpoint: median survival time, dose: 180.0 mg/kg/injection, schedule: Q07DX009 (sc), vehicle: saline) 114 % of control. Besides, the T/C is, setting by setting: (endpoint: median survival time, dose: 180.0 mg/kg/injection, schedule: Q07DX Z (sc), vehicle: saline) 115 % of control; (endpoint: median survival time, dose: 300.0 mg/kg/injection, schedule: Q07DX009 (sc), vehicle: saline) 169 % of control; (endpoint: median survival time, dose: 300.0 mg/kg/injection, schedule: Q07DX Z (sc), vehicle: saline) 168 % of control.

For `Nc1ccn(C2OC(COP(=O)(O)O)C(O)C2O)c(=O)n1` (centres undefined), the T/C (endpoint: median survival time, dose: 3.5 mg/kg/injection, schedule: Q01DX Z (sc), vehicle: other) is 200 % of control; the T/C (endpoint: median survival time, dose: 5.8 mg/kg/injection, schedule: Q01DX Z (sc), vehicle: other) was 244 % of control; the T/C (endpoint: median survival time, dose: 9.7 mg/kg/injection, schedule: Q01DX Z (sc), vehicle: other) was 272 % of control; the T/C (endpoint: median survival time, dose: 16.2 mg/kg/injection, schedule: Q01DX Z (sc), vehicle: other) was 300 % of control; the T/C (endpoint: median survival time, dose: 27.0 mg/kg/injection, schedule: Q01DX Z (sc), vehicle: other) is 350 % of control; the T/C (endpoint: median survival time, dose: 45.1 mg/kg/injection, schedule: Q01DX Z (sc), vehicle: other) is 305 % of control. Further, under “endpoint: median survival time, dose: 75.1 mg/kg/injection, schedule: Q01DX Z (sc), vehicle: other”, the T/C is 205 % of control.

Take `CS(C)=O`: the T/C (endpoint: median survival time, dose: 1.5 grams/kg/injection, schedule: Q01DX009 (ip), vehicle: saline) is 103 % of control; the T/C (endpoint: median survival time, dose: 3.0 grams/kg/injection, schedule: Q01DX009 (ip), vehicle: saline) was 97 % of control; the T/C (endpoint: median survival time, dose: 6.0 grams/kg/injection, schedule: Q01DX009 (ip), vehicle: saline) was 103 % of control.

Turning to `COc1cc([C@@H]2c3cc4c(cc3[C@@H](OC3OC5COC(C)OC5C(O)C3O)[C@H]3COC(=O)[C@H]23)OCO4)cc(OC)c1O` (some centres undefined), the T/C (endpoint: median survival time, dose: 2.0 mg/kg/injection, schedule: Q01DX009 (ip), vehicle: Klucel (hydroxypropylcellulose) (HPC)) was 120 % of control; the T/C (endpoint: median survival time, dose: 8.0 mg/kg/injection, schedule: Q01DX009 (ip), vehicle: Klucel (hydroxypropylcellulose) (HPC)) was 160 % of control; the T/C (endpoint: median survival time, dose: 16.0 mg/kg/injection, schedule: Q01DX009 (ip), vehicle: Klucel (hydroxypropylcellulose) (HPC)) is 105 % of control.

For `CC(=O)OCC(=O)[C@@]1(O)CC[C@H]2[C@@H]3C[C@H](F)C4=CC(=O)CC[C@]4(C)[C@H]3[C@@H](O)C[C@@]21C`, the T/C is, setting by setting: (endpoint: median survival time, dose: 8.4 mg/kg/injection, schedule: Q01DX Z (sc), vehicle: steriod suspending solution) 100 % of control; (endpoint: median survival time, dose: 14.0 mg/kg/injection, schedule: Q01DX Z (sc), vehicle: steriod suspending solution) 100 % of control; (endpoint: median survival time, dose: 23.0 mg/kg/injection, schedule: Q01DX Z (sc), vehicle: steriod suspending solution) 111 % of control; (endpoint: median survival time, dose: 39.0 mg/kg/injection, schedule: Q01DX Z (sc), vehicle: steriod suspending solution) 155 % of control; (endpoint: median survival time, dose: 65.0 mg/kg/injection, schedule: Q01DX Z (sc), vehicle: steriod suspending solution) 155 % of control; (endpoint: median survival time, dose: 108.0 mg/kg/injection, schedule: Q01DX Z (sc), vehicle: steriod suspending solution) 150 % of control. For the same molecule, under “endpoint: median survival time, dose: 180.0 mg/kg/injection, schedule: Q01DX Z (sc), vehicle: steriod suspending solution”, the T/C was 161 % of control.

`O=C(O)c1cc(=O)[nH]c(=O)[nH]1`: the T/C reads like this: (endpoint: median survival time, dose: 65.0 mg/kg/injection, schedule: Q01DX Z (sc), vehicle: saline) 100 % of control; under setting [1], 100 % of control; (endpoint: median survival time, dose: 300.0 mg/kg/injection, schedule: Q01DX Z (sc), vehicle: saline) 100 % of control.
